We go through 29 compounds from patent US20230000842A1, “METHODS OF TREATING CARTILAGE DISORDERS THROUGH INHIBITION OF CLK AND DYRK” (SAMUMED, LLC, priority 2019, published 2023).

One experiment concerns the target CLK2 kinase (Homo sapiens, UniProt P49760). Put plainly: CLK2 kinase activity assay (Z-lyte FRET).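 Also: FRET read-out as coumarin to fluorescein emission ratio, unphosphorylated peptide as 0% and phosphorylated peptide as 100% controls, duplicate reactions, non-linear regression fit of dose-response curves.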 Format: biochemical. Conditions: Z-lyte Ser/Thr 6 peptide, 60 μM ATP, 1 h at room temperature.
In experiment [1] the test system is MMP-3 levels in supernatant of chondrocytes stimulated with IL1-β. Put plainly: Chondrocyte protection assay compound screening (MMP-3 LANCE Ultra). Type of experiment: cell-based, human. Conditions: IL1-β 10 ng/mL overnight, 11-point curves from 3 μM to 0.05 nM; for Emax: read-out: Maximum % Inhibition. The protocol: Human Chondrocyte Cell Culture: Primary human chondrocytes were purchased from Lonza (Walkersville, Md.) and expanded in Chondrocyte Growth Media (CGM, Lonza). Cells between passage 2 and 5 were used for the experiments.
Chondrocytes were plated at 8,000 cells/well in 40 μL/well Chondrocyte Differentiation Medium (Lonza; 500 mL Basal Medium, 25 mL FBS, 0.5 mL GA-1000, 1 mL R3-IGF, 2.5 mL bFGF, 0.5 mL Transferrin, and 1 mL Insulin). After 2 hours of incubation at 37° C. and 5% CO2, IL1-β (Peprotech, Rocky Hill, N.J.) was added to a final concentration of 10 ng/mL. 11 wells in 1 row were left unstimulated for normalization and calculating EC50 values. Cells were incubated at 37° C. and 5% CO2 overnight. Assay plates are spun, 25 μl of supernatant media was collected using (S2 pipettor, Apricot Designs). Cells were lysed using 10 μL of (Cell Titer-Glo, Promega). Luminescent signal detected using an En Vision Multilabel reader (Perkin Elmer). MMP-3 levels were measured in supernatant. Supernatant diluted 1:7 in DMEM. MMP-3 levels in the supernatant were measured using MMP-3 LANCE Ultra detection kit (Perkin Elmer). Briefly, 5 μL of diluted supernatant was transferred to low-volume 384 well plates using (S2 pipettor, Apricot Designs). A standard curve was prepared using MMP-3 analyte (range […]). 1.7 μL of 8× mix of Eu-labelled anti-MMP-3 antibody and ULight labelled anti-MMP-3 antibody was added to the plates using Mantis Liquid handler (Formulatrix). Plates were incubated overnight at room temperature. LANCE signal was detected using an EnVision Multilabel reader (Perkin Elmer), equipped with TR-FRET using excitation wavelength of 320 nm and two emission wavelengths of 615 nm and 665 nm. Data was analyzed according to the kit protocol, using the ratio of […] and the standard curve values were used to calculate the amount of MMP3 in the […] (in pg/ml). The normalized averages (fold change over IL1-β stimulated) for each compound concentration were calculated. EC50 and maximum % inhibition values were calculated using the dose-response nonlinear regression curve-fit in Dotmatics.

The subject of experiment [2] is Wnt pathway activity (SW480 colon carcinoma cells stably expressing the Sp5-Luc reporter). Put plainly: Wnt pathway activity screening assay (Sp5-Luc reporter gene assay). The settings on record: Homo sapiens, SW480, Table 4; SW480 cells stably expressing Sp5-Luc reporter, 10-point dose-response from 10 μM, 36 to 48 hours.
Procedure: The screening assay for Wnt pathway activity is described as follows.
SW480 colon carcinoma cells were transduced with a lentiviral vector expressing luciferase with a human Sp5 promoter consisting of a sequence of eight TCF/LEF binding sites. […] These stably transduced SW480 cells were expanded in cell culture and used for all further screening activities. Each compound was dissolved in DMSO as a 10 mM stock and used to prepare compound source plates. Serial dilution (1:3, 10-point dose-response curves starting from 10 μM) and compound transfer was performed using the ECHO 550 (Labcyte, Sunnyvale, Calif.) into 384-well white solid bottom assay plates (Greiner Bio-One) with appropriate DMSO backfill for a final DMSO concentration of 0.1%. […] Following incubation, 15 μl of BriteLite Plus luminescence reagent (Perkin Elmer) was added to each well of the 384-well assay plates. The plates were placed on an orbital shaker for 2 min and then luminescence was quantified using the Envision (Perkin Elmer) plate reader.
The next experiment addresses CLK3 kinase (Homo sapiens, UniProt P49761). Put plainly: CLK3 kinase activity assay (Z-lyte FRET).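 Also: kinase activity read as coumarin/fluorescein emission ratio by FRET, unphosphorylated peptide as 0% and phosphorylated peptide as 100% control, values from non-linear regression of dose-response curves.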 Conditions: Z-lyte Ser/Thr 18 peptide, 156 μM ATP, 1 h at room temperature. Type of experiment: biochemical.
Experiment [3] relates to primary human mesenchymal stem cells (hMSCs). Put plainly: Chondrogenesis screening using primary human mesenchymal stem cells. Format: cell-based. Conditions: Homo sapiens, Mesenchymal stem cells, hMSC chondrogenesis; for Emax: maximum activity relative to TGF-β3 (10 ng/mL) positive control, read-out: Max. Activity as % TGF-β3 activity. In a few lines:
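Primary hMSCs at passage 3–6 were treated across compound concentrations, with TGF-β3 as positive control. Chondrogenic nodule area per well was normalized to 3 DMSO wells on the same plate (fold over DMSO, 2–3 replicates). EC50, maximum activity and the dose reaching it were derived.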

CLK3 kinase, sequence (P49761 whole entry): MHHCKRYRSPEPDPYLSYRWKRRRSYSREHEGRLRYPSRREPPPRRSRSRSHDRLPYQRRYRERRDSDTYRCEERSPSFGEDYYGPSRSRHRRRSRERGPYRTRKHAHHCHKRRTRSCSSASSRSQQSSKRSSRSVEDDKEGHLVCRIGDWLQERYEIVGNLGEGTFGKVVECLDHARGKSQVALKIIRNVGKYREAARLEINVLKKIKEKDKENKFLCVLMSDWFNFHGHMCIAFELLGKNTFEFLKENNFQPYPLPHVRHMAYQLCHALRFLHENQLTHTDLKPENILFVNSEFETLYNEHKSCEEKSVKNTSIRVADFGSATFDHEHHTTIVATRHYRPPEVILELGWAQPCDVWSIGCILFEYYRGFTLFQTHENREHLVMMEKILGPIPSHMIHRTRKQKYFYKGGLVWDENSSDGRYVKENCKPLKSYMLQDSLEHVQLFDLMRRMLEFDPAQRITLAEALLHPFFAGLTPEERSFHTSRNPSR
CLK2 kinase, sequence (P49760 whole entry): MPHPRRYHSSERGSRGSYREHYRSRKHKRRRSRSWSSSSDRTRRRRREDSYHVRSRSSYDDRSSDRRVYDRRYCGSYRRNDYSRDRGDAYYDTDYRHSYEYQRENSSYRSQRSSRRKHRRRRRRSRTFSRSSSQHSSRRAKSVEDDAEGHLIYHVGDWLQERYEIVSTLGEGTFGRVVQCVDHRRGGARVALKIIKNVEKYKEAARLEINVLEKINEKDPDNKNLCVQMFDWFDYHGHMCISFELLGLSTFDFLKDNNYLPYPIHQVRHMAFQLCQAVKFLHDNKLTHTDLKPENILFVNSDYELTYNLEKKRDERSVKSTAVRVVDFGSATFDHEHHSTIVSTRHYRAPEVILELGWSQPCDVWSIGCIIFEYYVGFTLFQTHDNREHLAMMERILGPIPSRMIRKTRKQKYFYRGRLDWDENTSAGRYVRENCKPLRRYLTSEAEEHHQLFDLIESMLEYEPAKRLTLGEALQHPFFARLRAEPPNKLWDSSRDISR

Regarding `COc1cncc(C#Cc2c[nH]nc2C(=O)Nc2ccc(OCCN3CCCC3)nc2)c1` [compound 31], the EC50 at CLK2 kinase is 28 nM; in experiment [1] (Homo sapiens, Chondrocyte), no less than 3000 nM; in experiment [2], 1210 nM. The Emax in experiment [1] (Homo sapiens, Chondrocyte) was found to be 2.4%.
As for `Cn1cncc1-c1ccc2cnc(NC(=O)c3ccnc(N4CCN(C5CC5)CC4)c3)cc2c1` [compound 582], the EC50 at CLK2 kinase was 2 nM; at CLK3 kinase it was 18 nM; in experiment [1] (Homo sapiens, Chondrocyte) it was no less than 3000 nM. The Emax in experiment [1] (Homo sapiens, Chondrocyte) stood at 52.2%.
As for `O=C(Nc1cccnc1)Nc1c[nH]nc1C(=O)Nc1ccc(C(F)(F)F)nc1` [compound 16], the EC50 at CLK2 kinase turned out to be 95 nM; in experiment [1] (Homo sapiens, Chondrocyte), 8.7 nM; in experiment [2], 679 nM. In experiment [1] (Homo sapiens, Chondrocyte), the Emax was 99.5%.
The corresponding values for `O=C(Nc1cncc(-c2ccc3[nH]nc(-c4nc5c(-c6ccccn6)ccnc5[nH]4)c3n2)c1)c1ccccc1` [compound 630] are 8 nM, 5.1 nM, greater than 10000 nM and 67%.
Compound `CN1CCN(c2ccc(C(=O)Nc3cc4cc(-c5cnn(C)c5)ccc4cn3)cn2)CC1` [compound 542] showed an EC50 at CLK3 kinase of 36 nM. In addition, in experiment [1], the EC50 was 9.5 nM and the “Maximum % Inhibition” value was 47.6%.
In the case of `COc1cccc(-c2cncc3[nH]c(-c4n[nH]c5ccc(-c6cncc(NC(=O)C7CCCCC7)c6)nc45)nc23)c1` [compound 627], the EC50 is 7 nM on CLK2 kinase; no less than 3000 nM in experiment [1] (Homo sapiens, Chondrocyte); greater than 10000 nM in experiment [2]. Besides, in experiment [1] (Homo sapiens, Chondrocyte), the Emax came to 90.7%.
The corresponding values for `COc1cncc(-c2ccc3[nH]nc(-c4nc5c(N6CCCCC6)ccnc5[nH]4)c3n2)c1` [compound 632] are 3 nM, 123 nM, greater than 10000 nM and 72.2%.
Regarding `CN1CCc2cc(C(=O)Nc3cc4cc(-c5cn(C)nn5)ccc4cn3)ccc2C1` [compound 578], the EC50 at CLK3 kinase is 48 nM; in experiment [1] (Homo sapiens, Chondrocyte) it was no less than 3000 nM. Further, the Emax in experiment [1] (Homo sapiens, Chondrocyte) amounted to 37.6%.
In the case of `CN1CCN(c2ccc(C(=O)Nc3cc4cc(-c5cnn(C)c5)ccc4cn3)cn2)CC1` [compound 551], the EC50 at CLK3 kinase was 78 nM. For the same compound, in experiment [1], the EC50 stood at 1060 nM and the “Maximum % Inhibition” value is reported as 100.0%.
On to `Fc1ccc(-c2cccc3[nH]c(-c4n[nH]c5ccc(-c6cncnc6)nc45)nc23)cc1` [compound 628], for which the EC50 was 5 nM on CLK2 kinase; no less than 3000 nM in experiment [1] (Homo sapiens, Chondrocyte); greater than 10000 nM in experiment [2]. Further, in experiment [1] (Homo sapiens, Chondrocyte), the Emax came out at 54.3%.
On the same counts, the results for `CC(F)(F)CN1CCC(C(=O)Nc2cc3cc(-c4cnco4)cnc3cn2)CC1` [compound 642] are 9780 nM, no less than 3000 nM, greater than 10000 nM and 29.5%.
The corresponding values for `COc1cncc(C#Cc2c[nH]nc2C(=O)Nc2ccc(OC3CCN(C)CC3)nc2)c1` [compound 30] are 18 nM, no less than 3000 nM, 3570 nM and 3.4%.
Consider `CN1CCN(c2cc(C(=O)Nc3cc4cc(-c5cnn(C)c5N)ccc4cn3)ccn2)CC1` [compound 566], for which the EC50 on CLK3 kinase turned out to be 34 nM. In experiment [1] (Homo sapiens, Chondrocyte), the EC50 was found to be 11.5 nM and the Emax amounted to 43.8%.
Regarding `O=C(Nc1cc2cc(-c3cncs3)ccc2cn1)C1(F)CCCCC1` [compound 637], the EC50 on CLK2 kinase was 1900 nM; in experiment [1] (Homo sapiens, Chondrocyte), no less than 3000 nM; in experiment [2], greater than 10000 nM. The Emax in experiment [1] (Homo sapiens, Chondrocyte) turned out to be 39.1%.
As to `Fc1cccc(-c2cncc3[nH]c(-c4n[nH]c5ccc(-c6cnccn6)nc45)nc23)c1` [compound 625], the EC50 on CLK2 kinase was 5 nM; in experiment [1] (Homo sapiens, Chondrocyte), no less than 3000 nM; in experiment [2], greater than 10000 nM. Further, the Emax in experiment [1] (Homo sapiens, Chondrocyte) was determined as 70.9%.
`Cc1n[nH]c2cc(F)c(-c3cncc(OC4CCNC[C@@H]4F)n3)cc12` (stereo partly shown) [compound 46]: the Emax came to 43.8% in experiment [3] and 100% in experiment [1] (Homo sapiens, Chondrocyte). Besides, the EC50 in experiment [1] (Homo sapiens, Chondrocyte) came to 1050 nM; in experiment [2], 630 nM.
Compound `CN1CCCN(c2cc(C(=O)Nc3cc4cc(-c5cnn(C)c5)ccc4cn3)ccn2)CC1` [compound 550] came in with an EC50 at CLK3 kinase of 28 nM. For the same compound, in experiment [1] (Homo sapiens, Chondrocyte), the EC50 is no less than 3000 nM and the Emax turned out to be 66.9%.
Turning to `O=C(Nc1cccnc1)c1n[nH]cc1C#Cc1cncc(OC2CCNCC2)c1` [compound 32], the EC50 at CLK2 kinase is 38 nM; in experiment [1] (Homo sapiens, Chondrocyte) it was 0.2 nM; in experiment [2], 1270 nM. In addition, in experiment [1] (Homo sapiens, Chondrocyte), the Emax stood at 77.8%.
With `O=C(Nc1c[nH]nc1C(=O)Nc1cncc(-c2cccc(F)c2)c1)c1cncc(F)c1` [compound 2], the EC50 turned out to be 72 nM at CLK2 kinase; 0.4 nM in experiment [1] (Homo sapiens, Chondrocyte); 479 nM in experiment [2]. In addition, the Emax stood at 81.5% in experiment [3] and 58.2% in experiment [1] (Homo sapiens, Chondrocyte).
`CN(C)CCNc1cc(F)cc(-c2cccc3[nH]c(-c4n[nH]c5ncc(-c6ccncc6)cc45)cc23)c1` [compound 635]: the EC50 on CLK2 kinase was 10 nM; in experiment [1] (Homo sapiens, Chondrocyte), 4 nM; in experiment [2], 6070 nM. For the same compound, the Emax in experiment [1] (Homo sapiens, Chondrocyte) was 78.5%.
With `COc1cncc(C(=O)Nc2c[nH]nc2C(=O)Nc2ccc(N3CCC(F)(F)C3)nc2)c1` [compound 6], the EC50 at CLK2 kinase was determined as 15 nM; in experiment [3] (concentration required to induce 50% levels of chondrogenesis with TGF-β3 as positive control, read-out: Conc (nM) of 50% TGF-β3 activity), 300 nM; in experiment [1] (Homo sapiens, Chondrocyte), 2.2 nM; in experiment [2] it was 5.7 nM. Besides, the Emax in experiment [3] was found to be 124%; in experiment [1] (Homo sapiens, Chondrocyte) it was 42.1%.
On to `O=C(Nc1cncc(-c2cc3c(-c4cc5c(-c6cccc(F)c6)ccnc5[nH]4)n[nH]c3cn2)c1)C1CC1` [compound 636], for which the EC50 is 9 nM at CLK2 kinase; 298 nM in experiment [1] (Homo sapiens, Chondrocyte); 97 nM in experiment [2]. Besides, the Emax in experiment [1] (Homo sapiens, Chondrocyte) amounted to 64.5%.
The corresponding values for `Fc1ccc(-c2cccc3[nH]c(-c4n[nH]c5ncc(-c6cncc(CN7CCCCC7)c6)cc45)cc23)cc1` [compound 634] are 8 nM, 46.1 nM, 3660 nM and 83.8%.
As to `CN(C)C1CCN(c2cc(C(=O)Nc3cc4cc(-c5cnn(C)c5)ccc4cn3)ccn2)CC1` [compound 552], on CLK3 kinase, the EC50 worked out at 9 nM. For the same compound, in experiment [1] (Homo sapiens, Chondrocyte), the EC50 is 697 nM and the Emax was 83.2%.
Turning to `Cc1n[nH]c2ccc(-c3cncc(OC[C@@H](N)Cc4ccccc4)c3)cc12` [compound 35], in experiment [1] (Homo sapiens, Chondrocyte), the EC50 is no less than 3000 nM and the Emax stood at 99.3%. The compound also had an EC50 in experiment [2] of 262 nM.
As to `O=C(Nc1cncc(-c2ccc3[nH]nc(-c4nc5c(-c6cccc(F)c6)cccc5[nH]4)c3n2)c1)C1CC1` [compound 629], the EC50 at CLK2 kinase was found to be 9 nM; in experiment [1] (Homo sapiens, Chondrocyte), 0.2 nM; in experiment [2], 1080 nM. Besides, the Emax in experiment [1] (Homo sapiens, Chondrocyte) stood at 70%.
On to `CN1CCN(c2cc(C(=O)Nc3cc4cc(-c5cncs5)ccc4cn3)ccn2)CC1` [compound 591], for which the EC50 on CLK3 kinase was 20 nM; in experiment [1] (Homo sapiens, Chondrocyte), 423 nM. Besides, the Emax in experiment [3] turned out to be 22.3%; in experiment [1] (Homo sapiens, Chondrocyte), 100%.
Turning to `O=C(Nc1cncc(-c2ccc3[nH]nc(-c4nc5c(-c6cccs6)cccc5[nH]4)c3n2)c1)C1CC1` [compound 631], the EC50 worked out at 10 nM at CLK2 kinase; 6.7 nM in experiment [1] (Homo sapiens, Chondrocyte); 3380 nM in experiment [2]. Besides, in experiment [1] (Homo sapiens, Chondrocyte), the Emax amounted to 72%.
In the case of `Cc1nnc(-c2ccc3cnc(NC(=O)c4ccnc(N(C)C5CCN(C)CC5)c4)cc3c2)s1` [compound 595], the EC50 is 19 nM on CLK3 kinase and 2.7 nM in experiment [1] (Homo sapiens, Chondrocyte). The Emax in experiment [3] came out at 25.7%; in experiment [1] (Homo sapiens, Chondrocyte), 86.2%.
